We go through twelve molecules from patent US8871753B2, “Macrocyclic compounds and their use as kinase inhibitors” (Incyte Corporation, priority 2008, dated 2014).

Counter-ions that a name gives are not always drawn. Like-named read-outs stand apart in the source and are kept apart here.

Common to all, as to format: biochemical
Assay [1] deals with T1, Recombinant Human Anaplastic Lymphoma Kinase (Homo sapiens, UniProt Q9UM73).
T1 construct: purchased Invitrogen, Carlsbad, Calif
Briefly: ALK HTRF kinase assay. Summed up: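 Recombinant human ALK with biotinylated peptide substrate; phosphorylation detected by HTRF using Eu-labelled anti-phosphotyrosine antibody and streptavidin-allophycocyanin. IC50 from a sigmoidal fit with Hill slope.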

Another assay deals with TYK2 (Homo sapiens, UniProt P29597). Briefly: TYK2 kinase inhibition (Table A1).
TYK2, sequence (P29597 whole entry): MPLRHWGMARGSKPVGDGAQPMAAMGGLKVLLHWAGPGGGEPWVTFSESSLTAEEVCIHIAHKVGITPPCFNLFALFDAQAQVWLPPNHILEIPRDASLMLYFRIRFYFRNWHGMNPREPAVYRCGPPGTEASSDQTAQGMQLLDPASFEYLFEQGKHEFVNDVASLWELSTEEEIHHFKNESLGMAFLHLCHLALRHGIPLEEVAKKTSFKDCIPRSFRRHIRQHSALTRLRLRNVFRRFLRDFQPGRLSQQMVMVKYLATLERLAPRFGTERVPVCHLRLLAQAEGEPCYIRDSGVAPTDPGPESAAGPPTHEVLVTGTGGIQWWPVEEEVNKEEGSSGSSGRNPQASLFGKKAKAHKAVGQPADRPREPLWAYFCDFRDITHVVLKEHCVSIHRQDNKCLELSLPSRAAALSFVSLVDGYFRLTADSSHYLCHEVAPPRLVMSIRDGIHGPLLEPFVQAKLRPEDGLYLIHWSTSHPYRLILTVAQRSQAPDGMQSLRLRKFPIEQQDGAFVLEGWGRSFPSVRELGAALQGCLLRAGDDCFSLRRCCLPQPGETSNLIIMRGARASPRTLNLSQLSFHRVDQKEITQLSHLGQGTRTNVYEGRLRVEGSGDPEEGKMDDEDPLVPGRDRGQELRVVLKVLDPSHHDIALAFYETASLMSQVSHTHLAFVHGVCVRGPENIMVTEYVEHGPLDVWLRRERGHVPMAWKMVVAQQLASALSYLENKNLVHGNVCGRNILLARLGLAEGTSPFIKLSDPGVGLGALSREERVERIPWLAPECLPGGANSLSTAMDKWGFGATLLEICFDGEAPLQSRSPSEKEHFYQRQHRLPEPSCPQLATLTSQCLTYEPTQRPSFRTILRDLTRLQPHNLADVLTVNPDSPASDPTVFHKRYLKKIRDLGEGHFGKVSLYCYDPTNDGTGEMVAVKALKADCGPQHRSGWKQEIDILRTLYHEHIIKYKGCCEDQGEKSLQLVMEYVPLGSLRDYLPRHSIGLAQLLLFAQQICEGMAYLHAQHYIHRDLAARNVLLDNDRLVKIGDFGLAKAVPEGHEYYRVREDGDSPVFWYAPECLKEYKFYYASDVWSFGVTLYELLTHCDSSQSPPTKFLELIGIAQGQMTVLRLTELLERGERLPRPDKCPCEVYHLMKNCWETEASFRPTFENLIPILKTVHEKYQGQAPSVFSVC
Assay [2] has as its target T2, human JAK2 (a.a. 828-1132) (Homo sapiens, UniProt O60674).
T2 construct: JAK2 (a.a. 828-1132); His tag (N); made in house; host or cells: insect cells (baculovirus)
Briefly: In vitro JAK kinase assay (HTRF, phosphorylation of a biotinylated peptide), JAK2. Summed up: (§1)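 Kinase reactions ran at room temperature for 1 h with ATP matched per isoform (JAK1 90 μM, JAK2 30 μM, JAK3 3 μM). After an EDTA stop, the phosphorylated biotin-peptide was read by HTRF using Eu-Py20 and SA-APC after 40 min binding.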

In assay [3] the target is T3, human JAK3 (a.a. 781-1124) (Homo sapiens, UniProt P52333).
T3 construct: JAK3 (a.a. 781-1124); His tag (N); made in house; host or cells: insect cells (baculovirus)
T3 sequence (P52333 781-1124): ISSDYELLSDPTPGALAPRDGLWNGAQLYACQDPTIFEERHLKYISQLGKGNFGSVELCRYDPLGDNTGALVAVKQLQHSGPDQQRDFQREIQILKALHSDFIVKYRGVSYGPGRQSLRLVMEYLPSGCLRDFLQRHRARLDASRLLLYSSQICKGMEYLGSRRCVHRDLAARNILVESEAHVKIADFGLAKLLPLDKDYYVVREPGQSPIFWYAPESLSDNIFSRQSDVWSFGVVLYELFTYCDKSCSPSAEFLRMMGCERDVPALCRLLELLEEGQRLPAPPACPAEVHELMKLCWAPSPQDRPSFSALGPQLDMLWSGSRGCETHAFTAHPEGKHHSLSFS
The assay can be described thus: In vitro JAK kinase assay (HTRF, phosphorylation of a biotinylated peptide), JAK3. The method, boiled down: as §1

Assay [4] deals with T4, human JAK1 (a.a. 837-1142) (Homo sapiens, UniProt P23458).
T4 construct: human JAK1 (a.a. 837-1142); His tag (N); made in house; host or cells: insect cells (baculovirus)
T4 sequence (P23458 849-1154): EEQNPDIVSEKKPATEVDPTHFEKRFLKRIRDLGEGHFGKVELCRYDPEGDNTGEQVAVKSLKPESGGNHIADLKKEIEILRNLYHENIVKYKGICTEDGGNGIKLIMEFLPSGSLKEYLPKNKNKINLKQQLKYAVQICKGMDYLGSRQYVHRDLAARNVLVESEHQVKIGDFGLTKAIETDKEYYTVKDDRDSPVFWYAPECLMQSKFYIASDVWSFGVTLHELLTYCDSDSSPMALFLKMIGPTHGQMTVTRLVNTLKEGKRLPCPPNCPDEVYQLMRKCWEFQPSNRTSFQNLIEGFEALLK
The assay can be described thus: In vitro JAK kinase assay (HTRF, phosphorylation of a biotinylated peptide), JAK1. To be noted: read-out: JAK1 IC50. Summed up:
as §1

[5] abbreviates: compound at 500 nM or 1 mM, 90 μM ATP.
Setting [6] is: method AA1 (30 μM ATP) or AA2 (1000 μM ATP), not stated per value.
[7] abbreviates: method AA1 (3 μM ATP) or AA2 (1000 μM ATP), not stated per value.
[8] abbreviates: method AA1 (90 μM ATP) or AA2 (1000 μM ATP), not stated per value.
Setting [9] is: compound at a concentration of 500 nM or 1 mM (not specified), cells shown as percentage.

T2 sequence (O60674 828-1132): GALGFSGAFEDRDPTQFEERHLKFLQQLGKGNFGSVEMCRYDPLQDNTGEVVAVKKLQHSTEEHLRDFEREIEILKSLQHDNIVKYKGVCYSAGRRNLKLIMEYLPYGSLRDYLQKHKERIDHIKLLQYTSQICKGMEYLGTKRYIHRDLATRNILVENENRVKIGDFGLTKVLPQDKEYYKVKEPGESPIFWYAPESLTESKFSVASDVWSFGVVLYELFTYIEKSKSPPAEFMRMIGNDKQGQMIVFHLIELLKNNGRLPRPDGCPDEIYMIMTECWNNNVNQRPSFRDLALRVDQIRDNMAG
T1 sequence (Q9UM73 19-1620): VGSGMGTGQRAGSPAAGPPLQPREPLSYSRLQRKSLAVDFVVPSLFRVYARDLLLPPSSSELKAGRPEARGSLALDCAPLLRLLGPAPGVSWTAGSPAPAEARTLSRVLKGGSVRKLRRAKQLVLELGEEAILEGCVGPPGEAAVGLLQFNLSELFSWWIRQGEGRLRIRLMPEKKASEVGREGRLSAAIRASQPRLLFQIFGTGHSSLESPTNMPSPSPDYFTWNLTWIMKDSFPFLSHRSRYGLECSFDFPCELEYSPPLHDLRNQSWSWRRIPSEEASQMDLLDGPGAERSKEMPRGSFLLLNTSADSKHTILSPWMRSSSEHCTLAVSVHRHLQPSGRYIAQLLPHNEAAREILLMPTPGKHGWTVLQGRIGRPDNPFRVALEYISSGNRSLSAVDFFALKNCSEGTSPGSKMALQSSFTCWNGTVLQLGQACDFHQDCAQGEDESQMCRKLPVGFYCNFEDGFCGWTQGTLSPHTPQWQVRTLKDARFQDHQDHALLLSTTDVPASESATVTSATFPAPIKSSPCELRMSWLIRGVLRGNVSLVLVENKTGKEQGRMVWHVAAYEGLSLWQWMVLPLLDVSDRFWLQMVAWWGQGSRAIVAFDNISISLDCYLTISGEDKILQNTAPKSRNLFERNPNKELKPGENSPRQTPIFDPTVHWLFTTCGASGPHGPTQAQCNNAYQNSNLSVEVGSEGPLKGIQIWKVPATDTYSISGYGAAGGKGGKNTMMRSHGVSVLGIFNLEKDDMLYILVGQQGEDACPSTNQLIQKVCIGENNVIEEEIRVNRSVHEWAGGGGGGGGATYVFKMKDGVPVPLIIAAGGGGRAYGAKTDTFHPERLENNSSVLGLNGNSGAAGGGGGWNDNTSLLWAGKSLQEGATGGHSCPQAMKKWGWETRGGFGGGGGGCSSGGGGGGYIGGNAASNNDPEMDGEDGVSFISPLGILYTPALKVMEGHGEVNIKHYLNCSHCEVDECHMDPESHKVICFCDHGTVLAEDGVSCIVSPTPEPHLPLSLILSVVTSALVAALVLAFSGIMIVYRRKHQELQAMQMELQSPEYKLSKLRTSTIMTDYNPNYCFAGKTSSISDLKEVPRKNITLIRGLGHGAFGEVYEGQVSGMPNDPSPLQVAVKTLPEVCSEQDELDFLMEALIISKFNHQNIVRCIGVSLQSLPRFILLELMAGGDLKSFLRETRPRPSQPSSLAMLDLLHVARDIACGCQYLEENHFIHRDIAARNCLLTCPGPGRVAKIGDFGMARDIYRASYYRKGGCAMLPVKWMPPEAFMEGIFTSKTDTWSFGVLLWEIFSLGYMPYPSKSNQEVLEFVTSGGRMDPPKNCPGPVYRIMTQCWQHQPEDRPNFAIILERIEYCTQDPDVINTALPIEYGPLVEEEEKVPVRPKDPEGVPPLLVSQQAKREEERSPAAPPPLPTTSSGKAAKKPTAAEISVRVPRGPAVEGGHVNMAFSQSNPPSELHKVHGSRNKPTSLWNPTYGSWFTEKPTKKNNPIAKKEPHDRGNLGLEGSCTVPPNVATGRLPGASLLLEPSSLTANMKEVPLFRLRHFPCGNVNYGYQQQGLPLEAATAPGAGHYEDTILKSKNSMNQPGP

Take `NS(=O)(=O)N1CC[C@@H](C(=O)Nc2ccc3cc2CCc2cccc(c2)Nc2ncc(Cl)c(n2)N3)C1` [Example A74, (3R)-1-(Aminosulfonyl)-N-[6-chloro-2,4,8,22-tetraazatetracyclo[14.3.1.1(3,7).1(9,13)]docosa-1(20),3(22),4,6,9(21),10,12,16,18-nonaen-12-yl]pyrrolidine-3-carboxamide trifluoroacetate]: the “ALK % of inhibition at a concentration of 500 nM or 1 mM” value (“ALK % of inhibition” below) in assay [1] (setting [5]) is listed as 48%. In addition, the IC50 was 17 nM on TYK2, 3 nM in assay [2] (setting [6]), 3.3 nM in assay [3] (setting [7]) and 6 nM in assay [4] (setting [8]).

On to `CC(=O)N1CCN(c2ccc(-c3cc4cc(c3)Nc3ncc(Cl)c(n3)Nc3cccc(c3)OCC4)cn2)CC1` [Example D37, 19-[6-(4-Acetylpiperazin-1-yl)pyridin-3-yl]-6-chloro-14-oxa-2,4,8,23-tetraazatetracyclo[15.3.1.1(3,7).1(9,13)]tricosa-1(21),3(23),4,6,9(22),10,12,17,19-nonaene tris(trifluoroacetate)], for which the IC50 in assay [1] (Table D1, 90 μM ATP) worked out at 248 nM; against TYK2 (Table D1), 1.4 nM; in assay [2] (Table D1) it was 0.7 nM; in assay [3] (Table D1), 9.9 nM; in assay [4] (Table D1), 0.9 nM.

`CS(=O)(=O)N1CCN(c2ccc(-c3cc4cc(c3)Nc3ncc(Cl)c(n3)Nc3cccc(c3)OCC4)cn2)CC1` [Example D38, 6-Chloro-19-{6-[4-(methylsulfonyl)piperazin-1-yl]pyridin-3-yl}-14-oxa-2,4,8,23-tetraazatetracyclo[15.3.1.1(3,7).1(9,13)]tricosa-1(21),3(23),4,6,9(22),10,12,17,19-nonaene bis(trifluoroacetate)]: the IC50 was found to be 442 nM in assay [1] (Table D1, 90 μM ATP); 4 nM on TYK2 (Table D1); 0.9 nM in assay [2] (Table D1); 19 nM in assay [3] (Table D1); 1.1 nM in assay [4] (Table D1).

On to `O=C(NCCNS(=O)(=O)c1ccc(Cl)s1)Nc1ccc2cc1CCc1cccc(c1)Nc1ncc(Cl)c(n1)N2` [Example B330, 5-Chloro-N-{2-[({[6-chloro-2,4,8,22-tetraazatetracyclo[14.3.1.1(3,7).1(9,13)]docosa-1(20),3(22),4,6,9(21),10,12,16,18-nonaen-12-yl]amino}carbonyl)amino]ethyl}thiophene-2-sulfonamide trifluoroacetate], for which the “ALK % of inhibition” value in assay [1] (percentage inhibition of the example compound at a concentration of 500 nM or 1 mM (not specified which)) stood at 21%. For the same molecule, the half-inhibitory concentration (IC50) against TYK2 (Table B1) is 16 nM; in assay [2] (Table B1), 6.1 nM; in assay [3] (Table B1), 7.1 nM; in assay [4] (Table B1), 4 nM.

Consider `Clc1cnc2nc1Nc1ccc(CN[C@H]3CCNC3)c(c1)CCc1cccc(c1)N2` [Example B223, (3S)—N-{[6-Chloro-2,4,8,22-tetraazatetracyclo[14.3.1.1(3,7).1(9,13)]docosa-1(20),3(22),4,6,9(21),10,12,16,18-nonaen-12-yl]methyl}pyrrolidin-3-amine tris(trifluoroacetate)], for which the “ALK % of inhibition” value in assay [1] (setting [9]) is reported as 41%. Moreover, the concentration for half-maximal inhibition (IC50) against TYK2 (Table B1) came out at 42 nM; in assay [2] (Table B1), 7.4 nM; in assay [3] (Table B1) it was 29 nM; in assay [4] (Table B1), 17 nM.

For the molecule `O=C(NCCN1CCCCC1)Nc1ccc2cc1CCc1cccc(c1)Nc1ncc(Cl)c(n1)N2` [Example B258, N-[6-Chloro-2,4,8,22-tetraazatetracyclo[14.3.1.1(3,7).1(9,13)]docosa-1(20),3(22),4,6,9(21),10,12,16,18-nonaen-12-yl]-N′-(2-piperidin-1-ylethyl)urea bis(trifluoroacetate)], the “ALK % of inhibition” value in assay [1] (setting [9]) stood at 29%. Also, the IC50 is 24 nM against TYK2 (Table B1), 10 nM in assay [2] (Table B1), 83 nM in assay [3] (Table B1) and 4.9 nM in assay [4] (Table B1).

Take `Cn1ccc2c(NC(=O)N3CCC(C(=O)Nc4ccc5cc4CCc4cccc(c4)Nc4ncc(Cl)c(n4)N5)CC3)cccc21` [Example A41, N(4)-[6-Chloro-2,4,8,22-tetraazatetracyclo[14.3.1.1(3,7).1(9,13)]docosa-1(20),3(22),4,6,9(21),10,12,16,18-nonaen-12-yl]-N(1)-(1-methyl-1H-indol-4-yl)piperidine-1,4-dicarboxamide trifluoroacetate]: the “ALK % of inhibition” value in assay [1] (setting [5]) came to 58%. The IC50 turned out to be 102 nM on TYK2, 12 nM in assay [2] (setting [6]), 157 nM in assay [3] (setting [7]) and 5.8 nM in assay [4] (setting [8]).

Take `Clc1cnc2nc1Nc1ccc(CN[C@@H]3CCNC3)c(c1)CCc1cccc(c1)N2` [Example B222, (3R)—N-{[6-Chloro-2,4,8,22-tetraazatetracyclo[14.3.1.1(3,7).1(9,13)]docosa-1(20),3(22),4,6,9(21),10,12,16,18-nonaen-12-yl]methyl}pyrrolidin-3-amine tris(trifluoroacetate)]: in assay [1] (setting [9]), the “ALK % of inhibition” value is given as 34%. Besides, the IC50 against TYK2 (Table B1) was 54 nM; in assay [2] (Table B1) it was 14 nM; in assay [3] (Table B1), 40 nM; in assay [4] (Table B1), 20 nM.

On to `N#Cc1ccccc1N1CCC(CC(=O)Nc2ccc3cc2CCc2cncc(c2)Nc2ncc(Cl)c(n2)N3)CC1` [Example A220, N-[6-Chloro-2,4,8,18,22-pentaazatetracyclo[14.3.1.1(3,7).1(9,13)]docosa-1(20),3(22),4,6,9(21),10,12,16,18-nonaen-12-yl]-2-[1-(2-cyanophenyl)piperidin-4-yl]acetamide tris(trifluoroacetate)], for which, in assay [1] (setting [5]), the “ALK % of inhibition” value turned out to be 18%. The IC50 at TYK2 was 190 nM; in assay [2] (setting [6]), 180 nM; in assay [3] (setting [7]) it was above 200 nM; in assay [4] (setting [8]) it was 13 nM.

In the case of `Cc1cc(C(=O)N2CCN(CC(=O)Nc3ccc4cc3CCc3cncc(c3)Nc3ncc(Cl)c(n3)N4)CC2)no1` [Example A119, N-[6-Chloro-2,4,8,18,22-pentaazatetracyclo[14.3.1.1(3,7).1(9,13)]docosa-1(20),3(22),4,6,9(21),10,12,16,18-nonaen-12-yl]-2-{4-[(5-methylisoxazol-3-yl)carbonyl]piperazin-1-yl}acetamide tris(trifluoroacetate)], the “ALK % of inhibition” value in assay [1] (setting [5]) stood at 15%. Moreover, the IC50 on TYK2 came to 8.6 nM; in assay [2] (setting [6]), 16 nM; in assay [3] (setting [7]) it was 174 nM; in assay [4] (setting [8]) it was 3.6 nM.

Consider `CC(C)NC(=O)N1CCC(CC(=O)Nc2ccc3cc2CCc2cccc(c2)Nc2ncc(Cl)c(n2)N3)CC1` [Example A84, 4-(2-{[6-Chloro-2,4,8,22-tetraazatetracyclo[14.3.1.1(3,7).1(9,13)]docosa-1(20),3(22),4,6,9(21),10,12,16,18-nonaen-12-yl]amino}-2-oxoethyl)-N-isopropylpiperidine-1-carboxamide trifluoroacetate], for which, in assay [1] (setting [5]), the “ALK % of inhibition” value is given as 31%. In addition, the IC50 amounted to 16 nM against TYK2, 9 nM in assay [2] (setting [6]), 49 nM in assay [3] (setting [7]) and 24 nM in assay [4] (setting [8]).

In the case of `O=C(Nc1ccc2cc1CCc1cccc(c1)Nc1ncc(Cl)c(n1)N2)c1ccccc1F` [Example B38, N-[6-Chloro-2,4,8,22-tetraazatetracyclo[14.3.1.1(3,7).1(9,13)]docosa-1(20), 3(22),4,6,9(21),10,12,16,18-nonaen-12-yl]-2-fluorobenzamide trifluoroacetate], the IC50 in assay [1] (Table B1, cells without percent sign) was determined as 210 nM; against TYK2 (Table B1) it was 0.97 nM; in assay [2] (Table B1) it was 0.26 nM; in assay [3] (Table B1), 4 nM; in assay [4] (Table B1), 1.4 nM.
